One may read the pKi as the negative decadic logarithm of the Ki, by convention in mol/L.

Each structure is given as a SMILES string. pKi: −log10 of the molar value. Where two headings read alike, the source gives them in different places.

Experimental findings from EP4631938A1, “NITROGEN-CONTAINING HETEROCYCLE WITH SEROTONIN RECEPTOR-BINDING ACTIVITY AND CARBOCYCLIC DERIVATIVE” (Shionogi & Co., Ltd, priority 2022, dated 2024) are described below.

Assay [1] deals with T1, human recombinant 5-HT2C receptor (Homo sapiens, UniProt P28335).
T1 construct: expressed in transfected cells; host or cells: Jump-In HEK cells (membrane preparation)
T1 sequence (P28335 33-458): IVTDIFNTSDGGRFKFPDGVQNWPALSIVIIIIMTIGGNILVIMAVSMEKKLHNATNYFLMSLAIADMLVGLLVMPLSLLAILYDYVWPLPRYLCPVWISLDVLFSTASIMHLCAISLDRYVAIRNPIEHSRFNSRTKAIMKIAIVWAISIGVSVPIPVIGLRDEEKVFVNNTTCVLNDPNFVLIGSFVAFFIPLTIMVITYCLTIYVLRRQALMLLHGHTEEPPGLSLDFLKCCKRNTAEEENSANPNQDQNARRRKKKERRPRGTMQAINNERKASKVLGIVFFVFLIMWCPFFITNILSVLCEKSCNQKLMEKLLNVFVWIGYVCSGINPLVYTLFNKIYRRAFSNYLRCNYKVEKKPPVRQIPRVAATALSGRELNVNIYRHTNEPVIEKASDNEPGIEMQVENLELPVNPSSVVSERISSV
The experiment in a line: Test Example 2-2: 5-HT2C receptor binding inhibition test ([3H]-Mesulergine; non-specific ligand Ketanserin). As to conditions: non-specific binding with 500 µmol/L Ketanserin, 37°C, 2 hours. The protocol: The Kd value is calculated when the lot of the cell membrane is changed. 1 mmol/L non-specific binding calculating compound dissolved in DMSO or DMSO is previously dispensed to the microplate by 0.5 µL, and the cell membrane is diluted with an Assay buffer. The radioactive ligand solution is diluted step by step, and counts are checked with a liquid scintillator. The Assay buffer containing diluted cell membranes is dispensed by 50 µL/well into the microplate. The radioactive ligand solution is then dispensed by 50 µL/well into the microplate and the plate is sealed. The microplate is allowed to stand at 37°C for 2 hours. During this time, 50 mmol/L Tris-HCl (pH 7.4) is dispensed by 50 µL/well into the UniFilter plate and allowed to stand at 4°C for 1 hour or longer. Thereafter, filtration is performed with a Cell Harvester (PerkinElmer). The radioactive ligand solution is dispensed by 10 µL/well into empty wells of the UniFilter plate. After drying the UniFilter plate at room temperature, MicroScinti20 is dispensed by 50 µL/well into the UniFilter plate, and the plate is sealed. UniFilter plate is allowed to stand at room temperature overnight. The radioactivity of [^3H]-Mesulergine bound to the 5-HT2C receptor is measured using Microbeta2 (PerkinElmer) at a measurement time of 1 min/well. The Saturation curve is drawn from the measured value, and the Kd value is calculated from the slope of the Scatchard Plot.
A compound solution dissolved in DMSO is dispensed to a microplate by 0.5 µL, and a cell membrane and a hot ligand are each diluted with an Assay buffer. The Assay buffer containing diluted cell membrane is then dispensed by 50 µL/well into the microplate. The radioactive ligand solution is then dispensed by 50 µL/well into the microplate and the plate is sealed. The microplate is then allowed to stand at 37°C for 2 hours. During this time, 50 mmol/L Tris-HCl (pH 7.4) is dispensed by 50 µL/well into the UniFilter plate and allowed to stand at 4°C for 1 hour or longer. Thereafter, filtration is performed with a Cell Harvester (PerkinElmer). After drying the UniFilter plate at room temperature, MicroScinti20 is dispensed by 50 µL/well into the UniFilter plate, and the plate is sealed. UniFilter plate is allowed to stand at room temperature overnight. The radioactivity of [^3H]-Mesulergine bound to the 5-HT2C receptor is measured using Microbeta2 (PerkinElmer) at a measurement time of 1 min/well. Non-specific binding is calculated from the radioactivity of [^3H]-Mesulergine in the presence of 500 µmol/L Ketanserin of unlabeled ligand, and total binding is calculated from the radioactivity of [^3H]-Mesulergine in the absence of the compound of the present invention (Vehicle). Finally, the Ki value is calculated from the dose-response curve.
(The binding activity of the compound according to the present invention is calculated from the following binding inhibition rate (%).) Inhibition rate (%) = [1−(c−a)/(b−a)] × 100 [formula] • a; average cpm of non-specific binding • b; average cpm of total binding • c; cpm in the presence of the test compound
The compounds of the present invention were tested essentially as described above.

The target of assay [2] is T2, human recombinant 5-HT2A receptor (Homo sapiens, UniProt P28223).
T2 construct: expressed in transfected cells; host or cells: Jump-In HEK cells (membrane preparation)
T2 sequence (P28223 whole entry): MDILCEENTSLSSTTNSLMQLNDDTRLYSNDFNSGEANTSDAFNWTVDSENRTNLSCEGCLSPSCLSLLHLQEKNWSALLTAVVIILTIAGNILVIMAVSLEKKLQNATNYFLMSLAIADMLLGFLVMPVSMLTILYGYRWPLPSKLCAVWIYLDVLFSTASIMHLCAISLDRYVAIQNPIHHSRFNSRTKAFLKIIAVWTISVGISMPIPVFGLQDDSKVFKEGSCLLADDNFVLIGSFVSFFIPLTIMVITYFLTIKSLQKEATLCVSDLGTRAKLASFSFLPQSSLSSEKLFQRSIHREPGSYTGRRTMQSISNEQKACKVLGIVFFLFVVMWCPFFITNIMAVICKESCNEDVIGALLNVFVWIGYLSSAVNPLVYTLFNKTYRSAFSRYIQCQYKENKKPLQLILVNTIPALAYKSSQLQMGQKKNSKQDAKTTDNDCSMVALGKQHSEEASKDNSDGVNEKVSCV
The experiment in a line: Test Example 1-2: 5-HT2A receptor binding inhibition test ([3H]-Ketanserin; non-specific ligand Ketanserin). The method, boiled down: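 Membranes expressing the receptor were incubated with [3H]-ketanserin and compound for 1.5 h at 25 °C, then filtered onto plates presoaked in 50 mmol/L Tris-HCl pH 7.4 and scintillation-counted. Non-specific binding was defined with 500 µmol/L unlabeled ketanserin. Ki was taken from dose-response curves, with Kd set for each membrane lot by Scatchard analysis.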

[3] abbreviates: [3H]-Ketanserin, non-specific binding with 500 µmol/L Ketanserin, room temperature (25°C), 1.5 hours, read-out: h 5-HT2A Ki.

`Cn1ncc(Br)c1-c1cc(Nc2ccc(C(C)(F)F)cn2)ccc1OCCO` [Compound I-080]: the pKi is 8.56 in assay [1] and 9.35 in assay [2] (setting [3]).

With `CC(C)c1cnn(C)c1-c1cc(Nc2ncc(C(F)(F)F)cc2F)ccc1OCCO` [I-056], the results for the negative-log Ki (pKi) in assay [1] and in assay [2] were 8.98 and 8.89, respectively.

For `Cc1cccc(F)c1-c1cc(Nc2ncc(C(F)(F)F)cc2F)ccc1OCCO` [Compound I-020], the pKi in assay [1] was 8.27; in assay [2] it was 8.95.

`Cn1ncc(Br)c1-c1cc(Nc2nc3ccccc3n2C)ccc1OCCO` [Compound I-042]: the pKi in assay [1] is 8.08; in assay [2] (setting [3]), 9.71.

`Cc1cnn(C)c1-c1cc(Nc2ncc(Cl)cc2F)ncc1OCCO` [Compound I-088]: the pKi in assay [1] was 8.08; in assay [2] (setting [3]) it was 9.57.

With `Cn1ncc(F)c1-c1cc(Nc2ncc(Cl)cc2F)ccc1OCCO` [Compound I-086], the figures for the pKi in assay [1] and in assay [2] (setting [3]) were 8.05 and 9.69, respectively.

`Cn1ncc(Br)c1-c1cc(Nc2ccc(C(F)F)cn2)ccc1OCCO` [Compound I-091]: the pKi in assay [1] was 8.05; in assay [2] (setting [3]) it was 9.71.

Consider `Cc1noc(C)c1-c1cc(Nc2ncc(C(F)(F)F)cc2F)c(F)cc1OCCO` [Compound I-147], for which the pKi was 8.32 in assay [1] and 9.59 in assay [2] (setting [3]).

Regarding `Cn1ncc(Br)c1-c1cc(Nc2nc3ccccc3s2)ccc1OCCO` [Compound I-029], the pKi in assay [1] was 9.20; in assay [2] (setting [3]), 9.54.

Take `COc1ccc2nc(Nc3ccc(OCCO)c(-c4c(Br)cnn4C)c3)sc2c1` [Compound I-085]: the pKi is 9.26 in assay [1] and 9.72 in assay [2] (setting [3]).

On to `OCCOc1ccc(Nc2ncc(C(F)(F)F)cc2F)cc1-c1c(F)cccc1Cl` [Compound I-019], for which the pKi in assay [1] was 8.51; in assay [2] (setting [3]), 9.26.

As for `Cn1ncc(Br)c1-c1cc(Nc2ccc(CC(F)(F)F)cn2)ccc1OCCO` [Compound I-094], the negative-log Ki (pKi) in assay [1] is 9.69; in assay [2] (setting [3]), 9.59.

On to `Cn1ncc(Cl)c1-c1cc(Nc2ncc(C(F)(F)F)cc2F)cnc1OCCO` [Compound I-142], for which the pKi in assay [1] was 9.71; in assay [2] (setting [3]), 9.57.

Turning to `Cc1ncnc(C)c1-c1cc(Nc2ncc(C(F)(F)F)cc2F)ccc1OCCO` [Compound I-050], the values for the negative-log Ki (pKi) in assay [1] and in assay [2] (setting [3]) were 8.77 and 9.40, respectively.

Take `Cc1cnc(Nc2ccc(OCCO)c(-c3c(Br)cnn3C)c2)s1` [Compound I-028]: the pKi in assay [1] was 8.30; in assay [2] (setting [3]), 9.68.

With `Cn1ncc(Br)c1-c1cc(Nc2ncc(C3CC3)cn2)cnc1OCCO` [Compound I-133], the pKi is 8.60 in assay [1] and 9.49 in assay [2] (setting [3]).

With `Cn1ncc(F)c1-c1cc(Nc2ncc(C(F)(F)F)cc2F)ccc1OCCO` [Compound I-018], the pKi in assay [1] was 8.72; in assay [2] (setting [3]) it was 9.63.

As for `Cn1ncc(Br)c1-c1cc(Nc2nc3ccccc3o2)ccc1OCCO` [Compound I-041], the pKi was 8.05 in assay [1] and 9.81 in assay [2] (setting [3]).

In the case of `CCn1ncc(C)c1-c1cc(Nc2ncc(C(F)(F)F)cc2F)ccc1OCCO` [Compound I-068], the negative logarithm of the Ki (pKi) in assay [1] is 8.94; in assay [2] (setting [3]) it was 9.54.

`COc1ncccc1-c1cc(Nc2ncc(C(F)(F)F)cc2F)ccc1OCCO` [Compound I-014]: the negative logarithm of the Ki (pKi) is 8.05 in assay [1] and 9.38 in assay [2] (setting [3]).

With `Cn1ncc(Br)c1-c1cc(Nc2nc3cc(F)ccc3n2C)ccc1OCCO` [Compound I-101], the pKi in assay [1] was 8.51; in assay [2] (setting [3]) it was 9.30.

As to `Cn1ncc(Cl)c1-c1cc(Nc2ncc(C(F)(F)F)cc2F)ccc1OCCO` [Compound I-015], the negative logarithm of the Ki (pKi) in assay [1] is 9.61; in assay [2] (setting [3]), 9.71.

Regarding `Cn1ncc(C#N)c1-c1cc(Nc2ccc(C(F)(F)F)cn2)ccc1OCCO` [Compound I-099], the negative-log Ki (pKi) in assay [1] is 8.15; in assay [2] (setting [3]), 9.65.

Regarding `Cn1ncc(Br)c1-c1cc(Nc2ncc(C(F)(F)F)cn2)c(F)cc1OCCO` [Compound I-148], the pKi in assay [1] is 9.04; in assay [2] (setting [3]), 9.30.

Regarding `Cn1ncc(Br)c1-c1cc(Nc2ncc(C(F)(F)F)cn2)ccc1OCCO` [Compound I-105], the pKi in assay [1] is 9.22; in assay [2] (setting [3]), 9.50.

For `Cn1ncc(Br)c1-c1cc(Nc2nc3cc(Cl)ccc3[nH]2)ccc1OCCO` [Compound I-078], the pKi in assay [1] is 8.96; in assay [2] (setting [3]), 9.58.

Take `Cc1cnn(C)c1-c1cc(Nc2ncc(C(F)(F)F)cc2F)c(F)cc1OCCO` [Compound I-144]: the negative-log Ki (pKi) in assay [1] was 8.60; in assay [2] (setting [3]), 9.47.

Take `Cn1ncc(Br)c1-c1cc(Nc2ncc(C(F)(F)F)cc2F)c(F)cc1OCCO` [Compound I-150]: the results for the pKi in assay [1] and in assay [2] (setting [3]) were 9.62 and 9.55, respectively.

`Cc1cnccc1-c1cc(Nc2ncc(C(F)(F)F)cc2F)ccc1OCCO` [Compound I-012]: the pKi was 8.19 in assay [1] and 9.57 in assay [2] (setting [3]).

On to `Cn1ncc(Br)c1-c1cc(Nc2ccc(C3CC3)cn2)ccc1OCCO` [Compound I-048], for which the pKi in assay [1] was 9.50; in assay [2] (setting [3]), 9.79.

`Cn1cnc(F)c1-c1cc(Nc2ncc(C(F)(F)F)cc2F)ccc1OCCO` [Compound I-106]: the pKi in assay [1] was 8.14; in assay [2] (setting [3]), 9.39.

Turning to `Cn1ncc(Br)c1-c1cc(Nc2ncc(Cl)cc2F)ccc1OCCO` [Compound I-017], the values for the negative-log Ki (pKi) in assay [1] and in assay [2] (setting [3]) were 9.38 and 9.58, respectively.

On to `Cn1ncc(Cl)c1-c1cc(Nc2ncc(Cl)cn2)ccc1OCCO` [Compound I-138], for which the pKi in assay [1] was 8.32; in assay [2] (setting [3]) it was 9.58.

As to `Cn1ncc(Br)c1-c1cc(Nc2cc(C(F)(F)F)ccn2)ccc1OCCO` [Compound I-047], the pKi in assay [1] is 8.37; in assay [2] (setting [3]), 9.68.

As to `Cn1ncc(Br)c1-c1nc(Nc2ccc(C(F)(F)F)cn2)ccc1OCCO` [Compound I-073], the pKi was 9.03 in assay [1] and 9.74 in assay [2].

On to `Cn1ncc(Br)c1-c1cc(Nc2ncc(C3CC3)s2)ccc1OCCO` [Compound I-038], for which the pKi in assay [1] was 9.18; in assay [2] (setting [3]), 9.67.

Take `Cn1ncc(F)c1-c1cc(Nc2ncc(C(F)(F)F)cc2F)c(F)cc1OCCO` [Compound I-145]: the figures for the negative-log Ki (pKi) in assay [1] and in assay [2] (setting [3]) were 8.32 and 9.69, respectively.

Regarding `Cn1cnc(C#N)c1-c1cc(Nc2ncc(C(F)(F)F)cc2F)ccc1OCCO` [I-065], the pKi is 8.30 in assay [1] and 9.82 in assay [2].

As to `Cn1ncc(Br)c1-c1cc(Nc2ncc(F)cc2F)ccc1OCCO` [Compound I-016], the pKi in assay [1] is 9.16; in assay [2] (setting [3]) it was 9.55.

As for `C=Cc1cnn(C)c1-c1cc(Nc2ncc(C(F)(F)F)cc2F)ccc1OCCO` [Compound I-053], the pKi in assay [1] is 8.90; in assay [2] (setting [3]), 9.54.

Turning to `Cn1cnc(Br)c1-c1cc(Nc2ncc(C(F)(F)F)cc2F)ccc1OCCO` [Compound I-027], the pKi in assay [1] is 9.58; in assay [2] (setting [3]), 9.53.

Take `Cn1ncc(Br)c1-c1cc(Nc2nc3cnccc3s2)ccc1OCCO` [Compound I-076]: the pKi was 8.52 in assay [1] and 9.68 in assay [2] (setting [3]).
